Experimental data taken from patent publication US8414870B2, “Benzylidene substituted 2,4-pentanedione compounds and use thereof as stabilizers” (Sytheon, Ltd., priority 2010, dated 2013).

How the values were obtained:
[1] = Photostabilization of avobenzone in ethanol test solution under sun simulator; type: physicochemical
Method: A comparative photostabilization study was conducted comparing the photostabilization efficacy of Synoxy™ AS with Octocrylene and Oxynex® ST in the stabilization of avobenzone. Samples for evaluation were prepared as follows:
Solutions of the photosensitive material and photostabilizer in ethanol were prepared, typically at a 1:1 to 1:5 weight ratio. A base test solution of 3% Avobenzone+5% Octyl salicylate+10% Homoslate in ethanol (the “Test Solution”) was made. Four additional solutions were prepared by adding 2% Synoxyl™ AS, 4% Octocrylene, 2% Oxynex® ST, and 2% Dehydrozingerone, respectively, to four aliquots of the Test Solution.
Samples of each solution were prepared as ultra h n films between two quartz plates so as to obtain a minimum of 90% light transmission over the entire spectrum range of non absorbing chromophores. […] Each sample was then irradiated under sun simulator (754 W/m^2, 2 MED/h, UV dose from 20 to 100 Jules/cm^2) for various durations and light absorption spectra recorded for each sample at given times. The maximal absorption band λmax of each solution was determined before and after irradiation. The amount of the photosensitive materials remaining in solution after irradiation was calculated as the ratio of theft two maximal absorptions.

[2] = Peroxyl radical antioxidant capacity (ORAC); conditions: method of Ou et al. 2001
From the text: (§1) The antioxidant profile of the compound of Example 1, Synoxyl™ AS, was compared to two widely used commercial antioxidants, natural tocopherol and Oxynex® ST, a proprietary stabilizer based on Diethylhexyl Syringylidene Malonate (DESM), available form EMD Chemicals, Inc., of Gibbstown, N.J., USA. Several test methods were employed.

[3] = Hydroxyl radical antioxidant capacity; conditions: method of Ou et al. 2002
From the text: as §1

[4] = Peroxynitrile antioxidant capacity; conditions: method of Zhang et al. 2007
From the text: as §1

[5] = Superoxide antioxidant capacity; conditions: method of Dubost et al. 2007
From the text: as §1

[6] = Singlet oxygen antioxidant capacity; conditions: method of Zhang et al. 2009
From the text: as §1

[7] = Stabilization of colored shampoo, fluorescent light aging; type: physicochemical; conditions: 0.4 g in 120 g shampoo, ambient temperature, 4 weeks (unmodified shampoo 21.6)
Method: The stabilizer compound according to Example 1, Synoxyl™ AS, was added to a commercial shampoo formulation in order to evaluate its ability to reduce the amount of dye fading following exposure to fluorescent lighting. The sample was prepared by dissolving 0.4 g of Synoxyl™ AS in 5 ml of ethanol and then adding the solution to 120 g of Suave® Natural Fresh Mountain Strawberry Shampoo with agitation and agitated for 15 minutes. A sample of the unmodified shampoo and the modified shampoo are then placed into 20 ml glass scintillation vials. Both sets of vials were weathered under fluorescent light aging at ambient temperature for 4 weeks. The L*a*b coordinates before and after exposure are measured using X-Rite 938 Spectra-densitometer. Color change is expressed as Delta E (ΔE) which is calculated by the formula: ΔE=[(ΔL*)^2+(Δa*)^2+(Δb*)^2]^1/2

[8] = Photostabilization of water-soluble dyes, solar simulated light; type: physicochemical; conditions: 0.05% in dye premix; solar simulated light ~40 hours (without stabilizer color lost within about 2 hours)
Method: The stabilizer compound identified as Synoxyl™ AS according to Example 1 was added to two dye premix formulations as set forth in Table 9 in order to evaluate its ability to reduce the amount of dye fading following exposure to solar simulated light. Control samples without the Synoxyl™ AS were also subjected to the same conditions.

[9] = cited from earlier work

change in color, Delta E [7]	dye fading [8]	SMILES	stabilization of photosensitive compounds [1]	Peroxyl (ORAC) [2]	Hydroxyl [3]	Peroxynitrile [4] [Trolox equivalent/gm]	Superoxide [5]	Singlet oxygen [6]	solubility in chloroform ([9]; chloroform)	solubility in ether ([9]; ether)	solubility in methylene chloride ([9]; methylene chloride)
		COc1cc(/C=C/C(C)=O)ccc1O [Dehydrozingerone]	fails to stabilize photosensitive compounds								
		CCCCC(CC)COC(=O)C(=Cc1cc(OC)c(O)c(OC)c1)C(=O)OCC(CC)CCCC (stereo not shown) [Oxynex ® ST, Diethylhexyl Syringylidene Malonate]		550 Trolox equivalent/gm	0 Trolox equivalent/gm	0	0 Trolox equivalent/gm	4,532 Trolox equivalent/gm			
12.3	did not fade	COc1cc(C=C(C(C)=O)C(C)=O)ccc1O [Synoxyl ™ AS, 3-(4-Hydroxy, 3-methoxybenzylidene)-2,4-pentanedione]		14,363 Trolox equivalent/gm	47,180 Trolox equivalent/gm	9	1,042 Trolox equivalent/gm	13,283 Trolox equivalent/gm			
		CC1=C(/C=C/C(C)=C/C=C/C(C)=C/C(=O)O)C(C)(C)CCC1 [tretinoin, all-trans-retinoic acid]							slightly soluble	sparingly soluble	soluble
